According to article PMC10584170, “Machine learning-based phenotypic imaging to characterise the targetable biology of Plasmodium falciparum male gametocytes for the development of transmission-blocking antimalarials” (PLOS Pathogens, 2023):

How the values were obtained:
[1] = system: P. falciparum male gametocytes; assay: P. falciparum Dual Gamete Formation Assay (PfDGFA), male readout (exflagellation); format: cell-based, Plasmodium falciparum NF54; settings: for Average inhibition male (%): average of replicates; for % inhibition male (individual replicates) R1: replicate R1; for % inhibition male (individual replicates) R4: replicate R4; for Activity: hit = >50% inhibition in male or female readout in at least 3 replicates, 0 = no class assigned; for % inhibition male (individual replicates) R3: replicate R3
Outline: (§1)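 First, day-14 P. falciparum NF54 gametocytes receive compound for 24 h at 37°C in 1% O2/3% CO2. Next, ookinete medium with Cy3 anti-Pfs25 triggers gametogenesis at 28°C and male exflagellation is imaged. Finally, after 24 h in the dark, Cy3-labelled females are imaged.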

[2] = system: P. falciparum female gametocytes; assay: P. falciparum Dual Gamete Formation Assay (PfDGFA), female readout (Pfs25-positive female gametes); format: cell-based, Plasmodium falciparum NF54; settings: for Average inhibition female (%): average of replicates; for % inhibition female (individual replicates) R1: replicate R1; for % inhibition female (individual replicates) R3: replicate R3; for % inhibition female (individual replicates) R4: replicate R4
Outline: as §1

[3] = 2µM, 24h preincubation with gametocytes prior to induction of gametogenesis
[4] = 2µM, 24h preincubation, hits selected on >50% inhibition in the male readout across replicates
[5] = PfDGFA at 2µM, 24h preincubation
[6] = 2µM, 24h preincubation, hits selected on >50% inhibition in the female readout across replicates
[7] = 2µM, 24h preincubation, number of replicates with >50% inhibition in the male readout
[8] = 2µM, 24h preincubation, number of replicates with >50% inhibition in the female readout
[9] = PfDGFA at 2µM, 24h preincubation with gametocytes prior to induction of gametogenesis
[10] = PfDGFA at 2µM, 24h preincubation with gametocytes
[11] = number of replicates with >50% inhibition in the male readout, 2µM
[12] = number of replicates with >50% inhibition in the female readout, 2µM

Row | Compound | Average inhibition male (%) [1, 3] [%] | % inhibition male (individual replicates) R1 [1, 3] [%] | % inhibition male (individual replicates) R4 [1, 3] [%] | HitlevelM [1, 4] | Activity [1, 5] | Average inhibition female (%) [2, 3] [%] | % inhibition female (individual replicates) R1 [2, 3] [%] | % inhibition female (individual replicates) R3 [2, 3] [%] | % inhibition female (individual replicates) R4 [2, 3] [%] | HitlevelF [2, 6] | % inhibition male (individual replicates) R3 [1, 3] [%] | also measured
1 | CC1(CCN2CCC(c3c[nH]c4cnccc34)CC2)CCCc2c(Br)cccc2C1=O.Cl (stereo not drawn) [TCMDC-141171] | 55.1 | 49.5 | 49.8 | 1 | 0 | 14.9 | 12.8 | 15.8 | 19.7 | 0 | – | –
2 | CC1(CCCCN2CCC(c3c[nH]c4cnccc34)CC2)C(=O)Nc2cccc(Cl)c21 (stereo not drawn) [TCMDC-141177] | 42.5 | 42.7 | 48.2 | – | – | 23.5 | 22.1 | 12.9 | 47.7 | – | 28.4 | HitlevelM [1, 7]: 1; HitlevelF [2, 8]: 0
3 | O=C(O)C(F)(F)F.O=[N+]([O-])c1cccc(CNCC2CCN(Cc3ccc(-c4ccccc4)cc3)CC2)c1 [TCMDC-141208] | 36.0 | 32.1 | 53.6 | 2 | 0 | 6.3 | -1.5 | 6.7 | 13.0 | 0 | 8.2 | –
4 | Cc1cc(F)ccc1-c1nc(Nc2ccncc2)c2ccn(C)c2n1 [TCMDC-141231] | – | – | – | – | – | – | – | – | – | – | – | % inhibition male (individual replicates) R1 [1, 9]: -14.5%; % inhibition male (individual replicates) R3 [1, 9]: -17.7%; % inhibition male (individual replicates) R4 [1, 9]: 32.9%; Average inhibition male (%) [1, 5]: -2.0%; % inhibition female (individual replicates) R1 [2, 9]: 10.5%; % inhibition female (individual replicates) R3 [2, 9]: -5.5%; % inhibition female (individual replicates) R4 [2, 9]: -9.9%; Average inhibition female (%) [2, 5]: -2.8%
5 | CCCC(C)NC(=O)[C@H]1CNCCN1C(=O)CCCc1ccccc1.O=C(O)C(F)(F)F (stereo partly drawn) [TCMDC-141270] | – | – | – | – | – | – | – | – | – | – | – | % inhibition male (individual replicates) R1 [1, 9]: -7.3%; % inhibition male (individual replicates) R3 [1, 9]: -0.8%; % inhibition male (individual replicates) R4 [1, 9]: 2.9%; Average inhibition male (%) [1, 5]: -3.3%; % inhibition female (individual replicates) R1 [2, 9]: 8.3%; % inhibition female (individual replicates) R3 [2, 9]: -18.4%; % inhibition female (individual replicates) R4 [2, 9]: -2.2%; Average inhibition female (%) [2, 5]: 0.7%
6 | ON=C1CCc2cc(-c3cc(-c4ccc(OC5CCNCC5)cc4)oc3-c3ccncc3)ccc21 [TCMDC-141381] | – | – | – | – | – | – | – | – | – | – | – | % inhibition male (individual replicates) R1 [1, 9]: 12.4%; % inhibition male (individual replicates) R3 [1, 9]: 2.8%; % inhibition male (individual replicates) R4 [1, 9]: 13.5%; Average inhibition male (%) [1, 5]: 7.3%; % inhibition female (individual replicates) R1 [2, 9]: 10.4%; % inhibition female (individual replicates) R3 [2, 9]: -25.1%; % inhibition female (individual replicates) R4 [2, 9]: 18.2%; Average inhibition female (%) [2, 5]: 2.6%
7 | CN(C)CCN(Cc1ccc(-c2ccc(CNCCc3ccccc3)cc2)nc1)C(=O)CCC1CCCC1.O=C(O)C(F)(F)F [TCMDC-141402] | 46.5 | 41.7 | 71.6 | 2 | 0 | 13.9 | 22.3 | 7.4 | 7.2 | 0 | 6.4 | –
8 | O=C(C1CC1c1ccccc1)N(Cc1ccc(-c2ccc(CNCCc3ccccc3)cc2)cc1)C1CCNCC1.O=C(O)C(F)(F)F (stereo not drawn) [TCMDC-141443] | 40.0 | 61.6 | 57.9 | – | – | 24.9 | 19.9 | 29.6 | 18.3 | – | 28.4 | HitlevelM [1, 7]: 2; HitlevelF [2, 8]: 0
9 | O=C(CCC1CCCC1)N(Cc1ccc(-c2ccc(CNCCc3ccccc3)cc2)cc1)C1CCCNC1.O=C(O)C(F)(F)F (stereo not drawn) [TCMDC-141444] | – | – | – | – | – | – | – | – | – | – | – | Average inhibition male (%) [1, 10]: 71.0%; % inhibition male (individual replicates) R1 [1, 10]: 62.4%; % inhibition male (individual replicates) R3 [1, 10]: 42.1%; % inhibition male (individual replicates) R4 [1, 10]: 88.2%; HitlevelM [1, 11]: 3; Average inhibition female (%) [2, 10]: 21.8%; % inhibition female (individual replicates) R1 [2, 10]: 31.1%; % inhibition female (individual replicates) R3 [2, 10]: 20.3%; % inhibition female (individual replicates) R4 [2, 10]: 22.2%; HitlevelF [2, 12]: 0
10 | CC(C)CC(=O)N(Cc1ccc(-c2ccc(CNC3Cc4ccccc4C3)cc2)cc1)C1CCNCC1.O=C(O)C(F)(F)F [TCMDC-141449] | 48.3 | 49.9 | 64.9 | – | – | 21.5 | 24.4 | 9.8 | 34.2 | – | 28.4 | HitlevelM [1, 7]: 2; HitlevelF [2, 8]: 0
11 | O=C(COc1ccccc1)N(Cc1ccc(-c2ccc(CNC3Cc4ccccc4C3)cc2)cc1)C1CCNCC1.O=C(O)C(F)(F)F [TCMDC-141450] | – | – | – | – | – | – | – | – | – | – | – | % inhibition male (individual replicates) R1 [1, 9]: 15.3%; % inhibition male (individual replicates) R3 [1, 9]: -5.5%; % inhibition male (individual replicates) R4 [1, 9]: 33.6%; Average inhibition male (%) [1, 5]: 16.7%; % inhibition female (individual replicates) R1 [2, 9]: 8.2%; % inhibition female (individual replicates) R3 [2, 9]: -25.4%; % inhibition female (individual replicates) R4 [2, 9]: -2.6%; Average inhibition female (%) [2, 5]: -0.0825%
12 | CN(C)CCCNCc1ccc(-c2ccc(CNCCOc3ccccc3)cc2)cc1.O=C(O)C(F)(F)F [TCMDC-141457] | – | – | – | – | – | – | – | – | – | – | – | % inhibition male (individual replicates) R1 [1, 9]: 5.2%; % inhibition male (individual replicates) R3 [1, 9]: 1.0%; % inhibition male (individual replicates) R4 [1, 9]: 30.2%; Average inhibition male (%) [1, 5]: 9.2%; % inhibition female (individual replicates) R1 [2, 9]: 3.5%; % inhibition female (individual replicates) R3 [2, 9]: -18.9%; % inhibition female (individual replicates) R4 [2, 9]: -9.2%; Average inhibition female (%) [2, 5]: -4.9%
13 | COc1cccc(CCN(Cc2ccccc2-c2ccc(CNC3CC(C)(C)NC(C)(C)C3)cc2)C(=O)NC2CCCCC2)c1.Cl [TCMDC-141577] | 1.5 | 8.1 | 2.2 | 0 | 0 | 13.0 | 16.8 | -15.5 | 31.4 | 0 | -2.0 | –
14 | CN(C)CCCNc1nccc(N(C)c2ccc(NC(=O)Nc3cc(C(F)(F)F)ccc3F)cc2)n1.O=C(O)C(F)(F)F [TCMDC-141633] | 62.2 | 40.8 | 63.9 | 2 | 0 | 13.3 | 14.0 | 9.3 | 15.1 | 0 | – | –
15 | O=C(O)C(F)(F)F.c1ccc(CCNCc2ccc(-c3ccc(CNC4CCN(Cc5ccccc5)CC4)cc3)nc2)cc1 [TCMDC-141649] | 11.3 | 9.5 | 30.2 | 0 | 0 | 11.9 | 20.3 | -13.0 | 18.4 | 0 | -1.4 | –
16 | CCCCCCN1CCC(NCc2ccc(OCCN3CCCC3)cc2)CC1.O=C(O)C(F)(F)F [TCMDC-141663] | 7.0 | 26.8 | -11.8 | 0 | 0 | 15.8 | 20.0 | 13.5 | 15.0 | 0 | -12.7 | –
17 | CN1CCc2cc(NS(=O)(=O)c3ccc(-c4ccc(Cl)cc4)cc3)c(OCCCN3CCCCC3)cc2CC1.Cl [TCMDC-141754] | – | – | – | – | – | – | – | – | – | – | – | Average inhibition male (%) [1, 10]: 76.4%; % inhibition male (individual replicates) R1 [1, 10]: 81.6%; % inhibition male (individual replicates) R3 [1, 10]: 46.2%; % inhibition male (individual replicates) R4 [1, 10]: 86.2%; HitlevelM [1, 11]: 3; Average inhibition female (%) [2, 10]: 21.5%; % inhibition female (individual replicates) R1 [2, 10]: 25.0%; % inhibition female (individual replicates) R3 [2, 10]: 13.0%; % inhibition female (individual replicates) R4 [2, 10]: 19.2%; HitlevelF [2, 12]: 0
